From paper PMC2720784 (Biochemistry, 2009)
Where a chain is given by its changes, count along the chain named.

How the values were obtained:
[1] = target: T1, R343V hNCRD (Homo sapiens, UniProt P35247, R363V); assay: Mannan competition assay, R343V; format: binding; conditions: for change in affinity of R343V relative to wild-type: competition assays
T1 sequence (P35247 223-375 R363V limits assumed): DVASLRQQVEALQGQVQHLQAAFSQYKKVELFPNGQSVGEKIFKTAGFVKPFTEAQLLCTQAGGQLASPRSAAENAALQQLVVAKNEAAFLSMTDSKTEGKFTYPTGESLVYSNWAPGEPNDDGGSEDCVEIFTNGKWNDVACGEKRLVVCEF

[2] = target: T2, R343A hNCRD (Homo sapiens, UniProt P35247, R363A); assay: Mannan competition assay, R343A; conditions: read-out: I50 for inhibition of binding to mannan, one experiment
T2 sequence (P35247 223-375 R363A limits assumed): T1 sequence (P35247 223-375 R363V limits assumed) with V141A

[3] = test system: Phil82 IAV; format: cell-based, influenza A virus
[4] = test system: Phil82 IAV; format: cell-based, influenza A virus; conditions: n=5
[5] = test system: Phil82 IAV; format: binding, influenza A virus

In the case of OC[C@H]1OC(O)[C@@H](O)[C@@H](O)[C@@H]1O (stereo partly drawn) [D-mannose], the “change in affinity of R343V relative to wild-type” value [1] is reported as “no significant increase in affinity”.

For OC[C@H]1O[C@H](OC[C@H]2OC(O)[C@@H](O)[C@@H](O)[C@@H]2O)[C@@H](O)[C@@H](O)[C@@H]1O (stereo partly drawn) [α1–6 dimannose], the “change in affinity of R343V relative to wild-type” value [1] was “no significant increase in affinity”.

In the case of OC[C@H]1O[C@H](O[C@@H]2C(O)O[C@H](CO)[C@@H](O)[C@@H]2O)[C@@H](O)[C@@H](O)[C@@H]1O (stereo partly drawn) [alpha1–2 DM, alpha1–2 linked dimannose], the IC50 [2] is reported as 362 µM, the “increase in affinity as compared to wild-type” value ([1]; R343V vs wild-type hNCRD) is reported as 7 fold and the “change in affinity of R343V relative to wild-type” value [1] is reported as “greatly enhanced binding”. It also gave an IC50 ([1]; read-out: I50 for inhibition of binding to mannan, R343V, n=5) of 210 ± 60 µM.

CO[C@H]1O[C@H](CO[C@H]2O[C@H](CO)[C@@H](O)[C@H](O)[C@@H]2O)[C@@H](O)[C@H](O[C@H]2O[C@H](CO)[C@@H](O)[C@H](O)[C@@H]2O)[C@@H]1O [TM core, methyl 3,6-Di-O-(α-D-mannopyranosyl)-α-D-mannopyranoside] was tested, and the “change in affinity of R343V relative to wild-type” value [1] was “no significant increase in affinity”.

In the case of “hNCRD Wild type: N-terminally tagged trimeric neck+carbohydrate recognition domain fusion protein of human SP-D, wild type”, the “viral neutralizing activity” value [3] is reported as “lacked”, the “HA Inhibitory Concentration” value [4] is reported as >50 µg/mL and the “binding to IAV, solid phase binding assay” value [5] is reported as “no measurable binding”.

OC[C@H]1O[C@H](O[C@H]2[C@H](O)[C@@H](CO)OC(O)[C@H]2O)[C@@H](O)[C@@H](O)[C@@H]1O (stereo partly drawn) [α1–3 dimannose] was tested, and the “change in affinity of R343V relative to wild-type” value [1] was “no significant increase in affinity”.
